Numbers after ± are expanded uncertainties.
Settings: Liquid, Ebulliometric method (Recirculating still)

Row | vapor or sublimation pressure (263.15 K) | vapor or sublimation pressure (278.15 K) | vapor or sublimation pressure (293.15 K) | vapor or sublimation pressure (308.15 K) | vapor or sublimation pressure (323.15 K) | Structure (SMILES)
1 | 132.4 ± 1.2 kPa | 235.2 ± 1.2 kPa | 389.4 ± 1.2 kPa | 608.3 ± 1.2 kPa | 912.1 ± 1.2 kPa | FC(C(F)(F)F)C(F)(F)F [1,1,1,2,3,3,3-heptafluoropropane]
2 | 345.9 ± 1.2 kPa | 552.7 ± 1.2 kPa | 839.7 ± 1.2 kPa | 1217.2 ± 1.2 kPa | 1714.5 ± 1.3 kPa | CCC [propane]

Row | Structure (SMILES) | vapor or sublimation pressure (263.15 K) | vapor or sublimation pressure (278.15 K) | vapor or sublimation pressure (293.15 K) | vapor or sublimation pressure (308.15 K) | vapor or sublimation pressure (323.15 K)
3 | FC(F)C(F)(F)F [pentafluoroethane] | 482.4 ± 1.2 kPa | 782.1 ± 1.2 kPa | 1205.6 ± 1.3 kPa | 1773.2 ± 1.3 kPa | 2531.1 ± 1.3 kPa

— the NIST ThermoML archive (doi:10.1016/j.fluid.2009.09.008)
